# Measured values from US12559492B2, “BRAF degraders” (C4 Therapeutics, Inc., priority 2020, dated 2026).
# Molecular target: BRAF^V600E protein (Homo sapiens, UniProt P15056, V600E)
# Assay: HiBiT cellular BRAF V600E degradation assay
# Type: cell-based
# Conditions: 24 h incubation; for DC50: A375.10 cells (HiBiT tag knocked in at N-terminal of BRAF V600E), concentration at which 50% of total cellular BRAF V600E is degraded; for Emax: read-out: HiBit 24 h Emax
# [1] = A375.10 cells, Emax = amount of residual protein remaining in the cell after compound treatment
# Sequence of BRAF^V600E protein (P15056 whole entry V600E): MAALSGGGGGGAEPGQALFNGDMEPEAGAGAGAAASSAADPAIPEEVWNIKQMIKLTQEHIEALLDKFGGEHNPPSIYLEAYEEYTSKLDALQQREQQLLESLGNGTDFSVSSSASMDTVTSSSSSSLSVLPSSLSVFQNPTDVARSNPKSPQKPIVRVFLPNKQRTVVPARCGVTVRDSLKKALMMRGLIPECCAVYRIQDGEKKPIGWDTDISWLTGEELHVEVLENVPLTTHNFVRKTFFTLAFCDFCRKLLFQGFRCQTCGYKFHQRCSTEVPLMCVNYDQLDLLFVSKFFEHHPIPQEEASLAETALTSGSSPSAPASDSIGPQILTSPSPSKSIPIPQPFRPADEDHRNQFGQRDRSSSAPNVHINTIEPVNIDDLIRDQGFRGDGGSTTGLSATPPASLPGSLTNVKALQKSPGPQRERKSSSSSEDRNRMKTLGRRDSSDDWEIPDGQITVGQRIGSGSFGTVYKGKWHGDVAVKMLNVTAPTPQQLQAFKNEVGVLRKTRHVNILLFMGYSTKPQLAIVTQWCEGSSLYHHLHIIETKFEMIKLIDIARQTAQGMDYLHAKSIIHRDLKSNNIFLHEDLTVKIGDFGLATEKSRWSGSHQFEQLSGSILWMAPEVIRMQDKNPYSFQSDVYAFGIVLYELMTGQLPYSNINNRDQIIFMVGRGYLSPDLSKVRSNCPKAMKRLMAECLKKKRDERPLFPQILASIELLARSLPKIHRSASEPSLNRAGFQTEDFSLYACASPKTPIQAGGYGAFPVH
Compound,DC50,Emax [1],HiBit 24 h Emax [1]
"CCN(C)S(=O)(=O)Nc1ccc(F)c(C(=O)c2c[nH]c3ncc(-c4ccc(CN5CCN(C(=O)CN6CCN(c7ccc(NC8CCC(=O)NC8=O)cc7)CC6)CC5)cc4)cc23)c1F.O=C(O)C(F)(F)F (stereo not drawn) [Example A24, 5-[4-[[4-[2-[4-[4-[(2,6-Dioxopiperidin-3-yl)amino]phenyl]piperazin-1-yl]acetyl]piperazin-1-yl]methyl]phenyl]-3-[3-[[ethyl(methyl)sulfamoyl]amino]-2,6-difluorobenzoyl]-1H-pyrrolo[2,3-b]pyridine; 2,2,2-trifluoroacetic acid]",0.03 µM,–,13%
"CCN(C)S(=O)(=O)Nc1ccc(F)c(C(=O)c2c[nH]c3ncc(-c4ccc(CN5CCN(C(=O)CN6CCN(c7cccc(NC8CCC(=O)NC8=O)c7)CC6)CC5)cc4)cc23)c1F (stereo not drawn) [Example A25, 5-[4-[[4-[2-[4-[3-[(2,6-Dioxopiperidin-3-yl)amino]phenyl]piperazin-1-yl]acetyl]piperazin-1-yl]methyl]phenyl]-3-[3-[[ethyl(methyl)sulfamoyl]amino]-2,6-difluorobenzoyl]-1H-pyrrolo[2,3-b]pyridine; 2,2,2-trifluoroacetic acid]",0.101 µM,18%,–
"CCC(C)S(=O)(=O)Nc1ccc(F)c(C(=O)c2c[nH]c3ncc(-c4ccc(N5CCN(C(=O)CN6CCC(c7ccc(NC8CCC(=O)NC8=O)cc7)CC6)CC5)nc4)cc23)c1F (stereo not drawn) [Example A29, N-[3-[5-[6-[4-[2-[4-[4-[(2,6-Dioxopiperidin-3-yl)amino]phenyl]piperidin-1-yl]acetyl]piperazin-1-yl]pyridin-3-yl]-1H-pyrrolo[2,3-b]pyridine-3-carbonyl]-2,4-difluorophenyl]butane-2-sulfonamide]",0.00305 µM,10.9%,–
"CCN(C)S(=O)(=O)Nc1ccc(F)c(C(=O)c2c[nH]c3ncc(-c4cnc(N5CCC(NC(=O)N6CCC(c7ccc(NC8CCC(=O)NC8=O)cc7)CC6)CC5)nc4)cc23)c1F (stereo not drawn) [Example A34, 4-[4-[(2,6-Dioxopiperidin-3-yl)amino]phenyl]-N-[1-[5-[3-[3-[[ethyl(methyl)sulfamoyl]amino]-2,6-difluorobenzoyl]-1H-pyrrolo[2,3-b]pyridin-5-yl]pyrimidin-2-yl]piperidin-4-yl]piperidine-1-carboxamide;formic acid]",0.079 µM,25%,–
"CCN(C)S(=O)(=O)Nc1ccc(F)c(C(=O)c2c[nH]c3ncc(-c4ccc(N5CCN(C(=O)CN6Cc7ccc(NC8CCC(=O)NC8=O)cc7C6)CC5)nc4)cc23)c1F (stereo not drawn) [Example A37, 5-[6-[4-[2-[5-[(2,6-Dioxopiperidin-3-yl)amino]-1,3-dihydroisoindol-2-yl]acetyl]piperazin-1-yl]pyridin-3-yl]-3-[3-[[ethyl(methyl)sulfamoyl]amino]-2,6-difluorobenzoyl]-1H-pyrrolo[2,3-b]pyridine]",0.0146 µM,20.6%,–
"CCN(C)S(=O)(=O)Nc1ccc(F)c(C(=O)c2c[nH]c3ncc(-c4ccc(CN5CCN(C(=O)CN6Cc7ccc(NC8CCC(=O)NC8=O)cc7C6)CC5)nc4)cc23)c1F (stereo not drawn) [Example A38, 5-[6-[[4-[2-[5-[(2,6-Dioxopiperidin-3-yl)amino]-1,3-dihydroisoindol-2-yl]acetyl]piperazin-1-yl]methyl]pyridin-3-yl]-3-[3-[[ethyl(methyl)sulfamoyl]amino]-2,6-difluorobenzoyl]-1H-pyrrolo[2,3-b]pyridine]",0.047 µM,20%,–
"CCN(C)S(=O)(=O)Nc1ccc(F)c(C(=O)c2c[nH]c3ncc(-c4ccc(N5CCN(C(=O)CN(C)C(=O)Cc6ccc(NC7CCC(=O)NC7=O)cc6)CC5)nc4)cc23)c1F (stereo not drawn) [Example A39, 2-[4-[(2,6-dioxopiperidin-3-yl)amino]phenyl]-N-[2-[4-[5-[3-[3-[[ethyl(methyl)sulfamoyl]amino]-2,6-difluorobenzoyl]-1H-pyrrolo[2,3-b]pyridin-5-yl]pyridin-2-yl]piperazin-1-yl]-2-oxoethyl]-N-methylacetamide]",0.035 µM,18%,–
"CCN(C)S(=O)(=O)Nc1ccc(F)c(C(=O)c2c[nH]c3ncc(-c4cnc(N5CCC(NC(=O)N6CCC(c7ccc(NC8CCC(=O)NC8=O)cn7)CC6)CC5)nc4)cc23)c1F (stereo not drawn) [Example A40, 4-[5-[(2,6-Dioxopiperidin-3-yl)amino]pyridin-2-yl]-N-[1-[5-[3-[3-[[ethyl(methyl)sulfamoyl]amino]-2,6-difluorobenzoyl]-1H-pyrrolo[2,3-b]pyridin-5-yl]pyrimidin-2-yl]piperidin-4-yl]piperidine-1-carboxamide;formic acid]",0.008 µM,17%,–

# Continued, values first:
DC50,Emax [1],HiBit 24 h Emax [1],Compound
0.019 µM,13%,–,"CCN(C)S(=O)(=O)Nc1ccc(F)c(C(=O)c2c[nH]c3ncc(-c4ccc(CN5CCN(C(=O)CN6CCC(c7ccc(NC8CCC(=O)NC8=O)cc7)CC6)CC5)cc4)cc23)c1F (stereo not drawn) [Example A23, 5-[4-[[4-[2-[4-[4-[(2,6-Dioxopiperidin-3-yl)amino]phenyl]piperidin-1-yl]acetyl]piperazin-1-yl]methyl]phenyl]-3-[3-[[ethyl(methyl)sulfamoyl]amino]-2,6-difluorobenzoyl]-1H-pyrrolo[2,3-b]pyridine]"
0.166 µM,19%,–,"CCN(C)S(=O)(=O)Nc1ccc(F)c(C(=O)c2c[nH]c3ncc(-c4ccc(CN5CCN(C(=O)CCCN6CCC(c7ccc(NC8CCC(=O)NC8=O)cc7)CC6)CC5)cc4)cc23)c1F (stereo not drawn) [Example A26, 5-[4-[[4-[4-[4-[4-[(2,6-Dioxopiperidin-3-yl)amino]phenyl]piperidin-1-yl]butanoyl]piperazin-1-yl]methyl]phenyl]-3-[3-[[ethyl(methyl)sulfamoyl]amino]-2,6-difluorobenzoyl]-1H-pyrrolo[2,3-b]pyridine; 2,2,2-trifluoroacetic acid]"
0.104 µM,30%,–,"O=C1CCC(Oc2ccc(C3CCN(C(=O)NC4CCN(Cc5ccc(-c6cnc7[nH]cc(C(=O)c8c(F)ccc(NS(=O)(=O)N9CCCC9)c8F)c7c6)cc5)CC4)CC3)cc2)C(=O)N1 (stereo not drawn) [Example A27, N-[1-[[4-[3-[2,6-Difluoro-3-(pyrrolidin-1-ylsulfonylamino)benzoyl]-1H-pyrrolo[2,3-b]pyridin-5-yl]phenyl]methyl]piperidin-4-yl]-4-[4-(2,6-dioxopiperidin-3-yl)oxyphenyl]piperidine-1-carboxamide; formic acid]"
0.012 µM,14%,–,"CCC(C)S(=O)(=O)Nc1ccc(F)c(C(=O)c2c[nH]c3ncc(-c4ccc(N5CCN(C(=O)CN6CCC(c7ccc(OC8CCC(=O)NC8=O)cc7)CC6)CC5)nc4)cc23)c1F (stereo not drawn) [Example A28, N-[3-[5-[6-[4-[2-[4-[4-(2,6-Dioxopiperidin-3-yl)oxyphenyl]piperidin-1-yl]acetyl]piperazin-1-yl]pyridin-3-yl]-1H-pyrrolo[2,3-b]pyridine-3-carbonyl]-2,4-difluorophenyl]butane-2-sulfonamide]"
0.053 µM,13%,–,"CCN(C)S(=O)(=O)Nc1ccc(F)c(C(=O)c2c[nH]c3ncc(-c4ccc(OC5CCN(C(=O)CN6CCC(c7ccc(OC8CCC(=O)NC8=O)cc7)CC6)CC5)cc4)cc23)c1F (stereo not drawn) [Example A30, 5-[4-[1-[2-[4-[4-(2,6-Dioxopiperidin-3-yl)oxyphenyl]piperidin-1-yl]acetyl]piperidin-4-yl]oxyphenyl]-3-[3-[[ethyl(methyl)sulfamoyl]amino]-2,6-difluorobenzoyl]-1H-pyrrolo[2,3-b]pyridine]"
0.015 µM,12%,–,"CCN(C)S(=O)(=O)Nc1ccc(F)c(C(=O)c2c[nH]c3ncc(-c4ccc(OC5CCN(C(=O)CN6CCC(c7ccc(NC8CCC(=O)NC8=O)cc7)CC6)CC5)cc4)cc23)c1F (stereo not drawn) [Example A31, 5-[4-[1-[2-[4-[4-[(2,6-dioxopiperidin-3-yl)amino]phenyl]piperidin-1-yl]acetyl]piperidin-4-yl]oxyphenyl]-3-[3-[[ethyl(methyl)sulfamoyl]amino]-2,6-difluorobenzoyl]-1H-pyrrolo[2,3-b]pyridine]"
0.039 µM,15%,–,"O=C1CCC(Oc2ccc(C3CCN(CC(=O)N4CCN(c5ccc(-c6cnc7[nH]cc(C(=O)c8c(F)ccc(NS(=O)(=O)C9CCCCC9)c8F)c7c6)cn5)CC4)CC3)cc2)C(=O)N1 (stereo not drawn) [Example A32, N-[3-[5-[6-[4-[2-[4-[4-(2,6-Dioxopiperidin-3-yl)oxyphenyl]piperidin-1-yl]acetyl]piperazin-1-yl]pyridin-3-yl]-1H-pyrrolo[2,3-b]pyridine-3-carbonyl]-2,4-difluorophenyl]cyclohexanesulfonamide]"
0.034 µM,13%,–,"O=C1CCC(Nc2ccc(C3CCN(CC(=O)N4CCN(c5ccc(-c6cnc7[nH]cc(C(=O)c8c(F)ccc(NS(=O)(=O)C9CCCCC9)c8F)c7c6)cn5)CC4)CC3)cc2)C(=O)N1 (stereo not drawn) [Example A33, N-[3-[5-[6-[4-[2-[4-[4-[(2,6-Dioxopiperidin-3-yl)amino]phenyl]piperidin-1-yl]acetyl]piperazin-1-yl]pyridin-3-yl]-1H-pyrrolo[2,3-b]pyridine-3-carbonyl]-2,4-difluorophenyl]cyclohexanesulfonamide]"
0.054 µM,21%,–,"CCN(C)S(=O)(=O)Nc1ccc(F)c(C(=O)c2c[nH]c3ncc(-c4ccc(N5CCN(C(=O)CCN6CCC(c7ccc(OC8CCC(=O)NC8=O)cc7)CC6)CC5)nc4)cc23)c1F (stereo not drawn) [Example A35, 5-[6-[4-[3-[4-[4-(2,6-Dioxopiperidin-3-yl)oxyphenyl]piperidin-1-yl]propanoyl]piperazin-1-yl]pyridin-3-yl]-3-[3-[[ethyl(methyl)sulfamoyl]amino]-2,6-difluorobenzoyl]-1H-pyrrolo[2,3-b]pyridine]"
0.003 µM,10%,–,"CCN(C)S(=O)(=O)Nc1ccc(F)c(C(=O)c2c[nH]c3ncc(-c4ccc(N5CCN(C(=O)CN6CCC(c7ccc(NC8CCC(=O)NC8=O)cc7)CC6)CC5)cc4)cc23)c1F (stereo not drawn) [Example A36, 5-[4-[4-[2-[4-[4-[(2,6-Dioxopiperidin-3-yl)amino]phenyl]piperidin-1-yl]acetyl]piperazin-1-yl]phenyl]-3-[3-[[ethyl(methyl)sulfamoyl]amino]-2,6-difluorobenzoyl]-1H-pyrrolo[2,3-b]pyridine]"
